Key:
[1] = test system: Raji, human Burkitts lymphoma cells; assay: Cell-MTS cellular proliferation assay, Raji; assay type: cell-based; conditions: Homo sapiens, 168 hr incubation
Procedure: (§1) A colorimetric cellular proliferation assay (Cell-MTS assay) was performed to assess the ability of the heterocyclic derivative […] inhibitors disclosed herein to effect the proliferation of established cancer cell lines.
(§2) The Cell-MTS assay is a 7-day plate-based colorimetric assay which quantifies the amount of newly generated NADH in the presence or absence of test compound. The NADH level is used for the quantification of cancer cell proliferation.
(§3) Established cancer cell lines with a variety of driving mutations were obtained from American Type Culture Collection (ATCC) and routinely passaged according to ATCC protocols. For routine assay, these cells were seeded at densities which enabled ˜90% confluence after 7 days of culture. Raji, human Burkitts lymphoma cells, (cMYC) were seeded at 15,000 cells per 96-well. HL-60, human proleukemia cells, (NRAS, p16, p53, c-Myc amplified) were seeded at 5,000 cells per 96-well. NCI-H460, human non-small cell lung cancer cells. (KRAS, PIK3CA, STLK11, p16) were seeded at 3,000 cells per 96-well. 24 hr after plating, cells received an 11 point dilution of test compound with final concentration ranges from 100 µM to 2.0 nM. Cells were incubated in the presence of compound for 168 hr at 37° C., and 5% CO2. At the end of this incubation period, 80 µL of media is removed and 20 µL of CellTiter 96® AQueous Non-Radioactive Cell Proliferation Assay solution (Promega) was added. The cells were incubated until the OD490 was >0.6. IC50 values were calculated using the IDBS XLfit software package and include background subtracted OD490 values and normalization to DMSO controls. Cellular proliferation IC50 values were uploaded and archived using the Chem Biography Platform. Table 3 provides the results of the in vitro enzyme inhibition assay experiments and the in vitro cell-based assay experiments performed with the compounds disclosed herein: […]

[2] = test system: NCI-H460, human non-small cell lung cancer cells; assay: Cell-MTS cellular proliferation assay, NCI-H460; assay type: cell-based; conditions: Homo sapiens, 168 hr incubation
Procedure: as §1, §2, §3

[3] = target: BRD4(BD1) (Homo sapiens (Human), UniProt O60885); assay: In vitro enzyme inhibition assay (BRD4 AlphaScreen, H4-tetraacetyl peptide); assay type: binding; conditions: BRD4(BD1) 2 nM, peptide 15 nM
Procedure: Determination of the IC50 for the heterocyclic derivative BRD4 inhibitors disclosed herein was performed as follows. His-tagged […] was cloned, expressed and purified to homogeneity. Filipakopoulos et al., 468 Nature 1067 (2010). BRD4 binding and inhibition was assessed by monitoring the interaction of biotinylated H4-tetraacetyl peptide (AnaSpec, H4K5/8/12/16(Ac), biotin—labeled) with the target using the AlphaScreen technology (Life Technologies). In a 384-well ProxiPlate BRD4(BD1) (2 nM final) was combined with peptide (15 nM final) in 50 mM HEPES (pH 7.3), 10 mM NaCl, 0.25 mM TCEP, 0.1% (w/v) BSA, and 0.005% (w/v) Brij-35 either in the presence of DMSO (final 0.4% DMSO) or compound dilution series in DMSO. After 20 min incubation at RT, Alpha streptavidin donor beads and Nickel Chelate acceptor beads were added to a final concentration of 5 μg/mL. After 2 hr of equilibration, plates were read on an Envision instrument and the IC50 was calculated using a four parameter non-linear curve fit.
The ability of the compounds disclosed herein to inhibit BRD4 activity was quantified and the respective IC50 value was determined.

[4] = test system: HL-60, human proleukemia cells; assay: Cell-MTS cellular proliferation assay, HL-60; assay type: cell-based; conditions: Homo sapiens, HL-60 cells, 168 hr incubation
Procedure: as §1, §2, §3

SMILES | IC50 [1] [nM] | IC50 [2] [µM] | IC50 [3] [nM] | IC50 [4] [nM]
Cc1cc(-c2cc3c(cc2OCC2CC2)CN(C)S3(=O)=O)cn(C)c1=O [Example 5, 5-[5-(cyclopropylmethoxy)-2-methyl-1,1-dioxo-3H-1,2-benzothiazol-6-yl]-1,3-dimethylpyridin-2-one] | 500 to 5000 | > 5 | ≤ 500 | ≤ 500
CN1Cc2cc(OCC3CC3)c(-c3cn(C)c(=O)c4ccccc34)cc2S1(=O)=O [Example 6, 4-[5-(cyclopropyhnethoxy)-2-methyl-1,1-dioxo-3H-1,2-benzothiazol-6-yl]-2-methylisoquinolin-1-one] | 500 to 5000 | 0.5 to 5 | ≤ 500 | ≤ 500
CCN1Cc2cc(OCC3CC3)c(-c3cn(C)c(=O)c4ccccc34)cc2S1(=O)=O [Example 7, 4-[5-(cyclopropylmethoxy)-2-ethyl-1,1-dioxo-3H-1,2-benzothiazol-6-yl]-2-methylisoquinolin-1-one] | ≤ 500 | 0.5 to 5 | ≤ 500 | ≤ 500
CCN1Cc2cc(OCC3CC3)c(-c3cc(C)c(=O)n(C)c3)cc2S1(=O)=O [Example 8, 5-[5-(cyclopropylmethoxy)-2-ethyl-1,1-dioxo-3H-1,2-benzothiazol-6-yl]-1,3-dimethylpyridin-2-one] | 500 to 5000 | 0.5 to 5 | ≤ 500 | ≤ 500
Cc1cc(-c2cc3c(cc2OCC(F)(F)F)CN(C)S3(=O)=O)cn(C)c1=O [Example 9, 1,3-dimethyl-5-[2-methyl-1,1-dioxo-5-(2,2,2-trifluoroethoxy)-3H-1,2-benzothiazol-6-yl]pyridine-2-one] | 500 to 5000 | > 5 | ≤ 500 | ≤ 500
CN1Cc2cc(OCC(F)(F)F)c(-c3cn(C)c(=O)c4ccccc34)cc2S1(=O)=O [Example 10, 2-methyl-4-[2-methyl-1,1-dioxo-5-(2,2,2-trifluoroethoxy)-3H-1,2-benzothiazol-6-yl]isoquinolin-1-one] | 500 to 5000 | 0.5 to 5 | ≤ 500 | ≤ 500
Cc1cc(-c2cc3c(cc2Oc2ccc(F)cc2F)CN(C)S3(=O)=O)cn(C)c1=O [Example 11, 5-[5-(2,4-difluorophenoxy)-2-methyl-1,1-dioxo-3H-1,2-benzothiazol-6-yl]-1,3-dimethylpyridin-2-one] | ≤ 500 | > 5 | ≤ 500 | ≤ 500
Cn1cc(-c2cc3c(cc2OCC2CC2)CCN3S(C)(=O)=O)c2ccccc2c1=O [Example 13, 4-[5-(cyclopropylmethoxy)-1-methylsulfonyl-2,3-dihydroindol-6-yl]-2-methylisoquinolin-1-one] | ≤ 500 | 0.5 to 5 | ≤ 500 | ≤ 500
CCS(=O)(=O)N1CCc2cc(OCC3CC3)c(-c3cn(C)c(=O)c4ccccc34)cc21 [Example 14, 4-[5-(cyclopropylmethoxy)-1-ethylsulfonyl-2,3-dihydroindol-6-yl]-2-methylisoquinolin-1-one] | ≤ 500 | 0.5 to 5 | ≤ 500 | ≤ 500
Cc1cc(-c2cc3c(cc2OCC2CC2)CCN3S(C)(=O)=O)cn(C)c1=O [Example 15, 5-[5-(cyclopropylmethoxy)-1-methylsulfonyl-2,3-dihydroindol-6-yl]-1,3-dimethylpyridin-2-one] | ≤ 500 | > 5 | ≤ 500 | ≤ 500
CCS(=O)(=O)N1CCc2cc(OCC3CC3)c(-c3cc(C)c(=O)n(C)c3)cc21 [Example 16, 5-[5-(cyclopropylmethoxy)-1-ethylsulfonyl-2,3-dihydroindol-6-yl]-1,3-dimethylpyridin-2-one] | ≤ 500 | > 5 | ≤ 500 | ≤ 500
Cn1cc(-c2cc(NS(C)(=O)=O)c3ccn(Cc4ccccc4)c3c2)c2ccccc2c1=O [Example 17, N-[1-benzyl-6-(2-methyl-1-oxoisoquinolin-4-yl)indol-4-yl]methanesulfonamide] | ≤ 500 | 0.5 to 5 | ≤ 500 | ≤ 500
Cc1cc(-c2cc(NS(C)(=O)=O)c3ccn(Cc4ccccc4)c3c2)cn(C)c1=O [Example 18, N-[1-benzyl-6-(1,5-dimethyl-6-oxopyridin-3-yl)indol-4-yl]methanesulfonamide] | ≤ 500 | 0.5 to 5 | ≤ 500 | ≤ 500
Cc1cc(-c2cc(NS(C)(=O)=O)c3c(c2)N(Cc2ccccc2)CC3)cn(C)c1=O [Example 19, N-[1-benzyl-6-(1,5-dimethyl-6-oxopyridin-3-yl)-2,3-dihydroindol-4-yl]methanesulfonamide] | ≤ 500 | 0.5 to 5 | ≤ 500 | ≤ 500
Cn1cc(-c2cc(NS(C)(=O)=O)c3c(c2)N(Cc2ccccc2)CC3)c2ccccc2c1=O [Example 20, N-[1-benzyl-6-(2-methyl-1-oxoisoquinolin-4-yl)-2,3-dihydroindol-4-yl]methanesulfonamide] | ≤ 500 | 0.5 to 5 | ≤ 500 | ≤ 500
Cc1cc(-c2cc(S(C)(=O)=O)cc3cc(C4CC4)oc23)cn(C)c1=O [Example 23, 5-(2-cyclopropyl-5-methylsulfonyl-1-benzofuran-7-yl)-1,3-dimethylpyridin-2-one] | 500 to 5000 | > 5 | ≤ 500 | ≤ 500
Cn1cc(-c2cc(S(C)(=O)=O)cc3cc(C4CC4)oc23)c2ccccc2c1=O [Example 24, 4-(2-cyclopropyl-5-methylsulfonyl-1-benzofuran-7-yl)-2-methylisoquinolin-1-one] | ≤ 500 | 0.5 to 5 | ≤ 500 | ≤ 500
Cn1cc(-c2cc(S(C)(=O)=O)cc3cc(-c4ccccc4)oc23)c2ccccc2c1=O [Example 26, 2-methyl-4-(5-methylsulfonyl-2-phenyl-1-benzofuran-7-yl)isoquinolin-1-one] | ≤ 500 | 0.5 to 5 | ≤ 500 | ≤ 500
CCS(=O)(=O)Nc1cc(-c2cc(C)c(=O)n(C)c2)cc2c1nnn2Cc1ccccc1 [Example 27, N-[1-benzyl-6-(1,5-dimethyl-6-oxopyridin-3-yl)benzotriazol-4-yl]ethanesulfonamide] | ≤ 500 | 0.5 to 5 | ≤ 500 | ≤ 500
CCS(=O)(=O)Nc1cc(-c2cc(C)c(=O)n(C)c2)cc2c1nnn2Cc1ccc(F)cc1 [Example 28, N-[6-(1,5-dimethyl-6-oxopyridin-3-yl)-1-[(4-fluorophenyl)methyl]benzotriazol-4-yl]ethanesulfonamide] | ≤ 500 | 0.5 to 5 | ≤ 500 | ≤ 500
Cn1cc(-c2cc3c(S(C)(=O)=O)nn(C)c3cc2OCC2CC2)c2ccccc2c1=O [Example 29, 4-[6-(cyclopropylmethoxy)-1-methyl-3-methylsulfonylindazol-5-yl]-2-methylisoquinolin-1-one] | ≤ 500 | 0.5 to 5 | ≤ 500 | ≤ 500
CCS(=O)(=O)c1nn(C)c2cc(OCC3CC3)c(-c3cn(C)c(=O)c4ccccc34)cc12 [Example 30, 4-[6-(cyclopropylmethoxy)-3-ethylsulfonyl-1-methylindazol-5-yl]-2-methylisoquinolin-1-one] | ≤ 500 | 0.5 to 5 | ≤ 500 | ≤ 500
